Laboratory results from patent US6313111A, “Substituted 6H-1,3,4-thiadiazine-2-amines, the use thereof as anaesthetising, cardiovascular and hypometabolic agents, and pharmaceutical composition containing them” (priority 1998, dated 2001).
“And” between values parts separate entries of the source, which are not always exact repeats. Equal entries are not always repeated. Structures can show the parent of a compound that is named as a salt.

Legend:
Format in all cases: in vivo, mice of the BALB line
[1] = rate of oxygen consumption of mice in closed unit with optic-acoustic gas analyser MN 5130; conditions: relative to starting content
Description: In all cases tests were carried out on mice of the BALB line of 3-4 month age. […] In the case of water-soluble compounds, aqueous solutions of the test compounds were injected intraperitoneally (i.p.), while water-insoluble compounds were introduced orally (p.o.).
Rectal temperature changes (absolute magnitues in ° C.) were measured using a medicinal electrothermometer TREM-1 (Table 1). The rate of oxygen consumption was monitored by measuring concentration of oxygen in a closed testing unit with optic-acoustic gas analyser MN 5130. The data on oxygen consumption are given in percents relative to the starting content of oxygen taken as 100%. (Table 2).

[2] = behaviour of mice after injection of compound 1; conditions: for behaviour of mice: 140 mg/kg
Description: In all cases tests were carried out on mice of the BALB line of 3-4 month age. Non-toxic doses of compounds under test varying from 60 to 400 mg/kg were used in all experiments. In the case of water-soluble compounds, aqueous solutions of the test compounds were injected intraperitoneally (i.p.), while water-insoluble compounds were introduced orally (p.o.).
The behaviour of mice to injection of compound 1 at 140 mg/kg dosage is as follows: […]

[3] = lethal dose (LD16, LD50) in mice

SMILES: c1ccc(C2=NN=C(N3CCOCC3)SC2)cc1 [Compound 1, 2-Morpholino-5-phenyl-6H-1,3,4-thiadiazine, hydrobromide]
- consumption of oxygen (O2) ([1]; 10.0 mg/kg i.p., 0 min): 100 ± 6.9%
- consumption of oxygen (O2) ([1]; 10.0 mg/kg i.p., 10 min): 94.0 ± 5.5%
- consumption of oxygen (O2) ([1]; 10.0 mg/kg i.p., 20 min): 87.3 ± 9.9%
- consumption of oxygen (O2) ([1]; 10.0 mg/kg i.p., 30 min): 78.2%
- consumption of oxygen (O2) ([1]; 10.0 mg/kg i.p., 60 min): 83.3 ± 18.1%
- consumption of oxygen (O2) ([1]; 10.0 mg/kg i.p., 90 min): 75.9 ± 19.3%
- consumption of oxygen (O2) ([1]; 10.0 mg/kg i.p., 120 min): 95.6 ± 10.8%
- consumption of oxygen (O2) ([1]; 10.0 mg/kg i.p., 180 min): 80.6 ± 9.9%
- consumption of oxygen (O2) ([1]; 10.0 mg/kg i.p., 240 min): 92.6 ± 3.9%
- consumption of oxygen (O2) ([1]; 10.0 mg/kg i.p., 300 min): 109.7 ± 8.8%
- consumption of oxygen (O2) ([1]; 35.0 mg/kg i.p., 0 min): 100 ± 7.4%
- consumption of oxygen (O2) ([1]; 35.0 mg/kg i.p., 10 min): 86.3 ± 13.1%
- consumption of oxygen (O2) ([1]; 35.0 mg/kg i.p., 20 min): 73.6 ± 2.6%
- consumption of oxygen (O2) ([1]; 35.0 mg/kg i.p., 30 min): 68.4%
- consumption of oxygen (O2) ([1]; 35.0 mg/kg i.p., 60 min): 70.4 ± 7.1%
- consumption of oxygen (O2) ([1]; 35.0 mg/kg i.p., 90 min): 72.1 ± 10.4%
- consumption of oxygen (O2) ([1]; 35.0 mg/kg i.p., 120 min): 68.4 ± 11.2%
- consumption of oxygen (O2) ([1]; 35.0 mg/kg i.p., 180 min): 78.4 ± 9.3%
- consumption of oxygen (O2) ([1]; 35.0 mg/kg i.p., 240 min): 97.4 ± 5.6%
- consumption of oxygen (O2) ([1]; 35.0 mg/kg i.p., 300 min): 85.1 ± 3.8%
- consumption of oxygen (O2) ([1]; 140.0 mg/kg i.p., 0 min): 100 ± 21.7%
- consumption of oxygen (O2) ([1]; 140.0 mg/kg i.p., 10 min): 26.3 ± 6.8%
- consumption of oxygen (O2) ([1]; 140.0 mg/kg i.p., 20 min): 46.8 ± 4.7%
- consumption of oxygen (O2) ([1]; 140.0 mg/kg i.p., 30 min): 32.2%
- consumption of oxygen (O2) ([1]; 140.0 mg/kg i.p., 60 min): 49.3 ± 9.8%
- consumption of oxygen (O2) ([1]; 140.0 mg/kg i.p., 90 min): 43.6 ± 18.6%
- consumption of oxygen (O2) ([1]; 140.0 mg/kg i.p., 120 min): 49.3 ± 15.4%
- consumption of oxygen (O2) ([1]; 140.0 mg/kg i.p., 180 min): 78.9 ± 10.6%
- consumption of oxygen (O2) ([1]; 140.0 mg/kg i.p., 240 min): 88.8 ± 9.8%
- consumption of oxygen (O2) ([1]; 140.0 mg/kg i.p., 300 min): 105.3 ± 20.5%
- consumption of oxygen (O2) ([1]; 190 mg/kg (1/2 LD16) i.p., 5 min): 43%
- consumption of oxygen (O2) ([1]; 190 mg/kg (1/2 LD16) i.p., 15 min): 71.7%
- consumption of oxygen (O2) ([1]; 190.0 mg/kg i.p., 0 min, hydrobromide): 100% and 100 ± 27.8%
- consumption of oxygen (O2) ([1]; 190.0 mg/kg i.p., 10 min): 26.3 ± 9.8%
- consumption of oxygen (O2) ([1]; 190.0 mg/kg i.p., 20 min): 71.7 ± 4.1%
- consumption of oxygen (O2) ([1]; 190.0 mg/kg i.p., 30 min): 49.2%
- consumption of oxygen (O2) ([1]; 190.0 mg/kg i.p., 60 min, hydrobromide): 29.5% and 29.5 ± 15.0%
- consumption of oxygen (O2) ([1]; 190.0 mg/kg i.p., 90 min, hydrobromide): 47.5% and 47.5 ± 6.8%
- consumption of oxygen (O2) ([1]; 190.0 mg/kg i.p., 120 min, hydrobromide): 36.9% and 36.9 ± 22.8%
- consumption of oxygen (O2) ([1]; 190.0 mg/kg i.p., 180 min, hydrobromide): 55.3% and 55.3 ± 9.1%
- consumption of oxygen (O2) ([1]; 190.0 mg/kg i.p., 240 min, hydrobromide): 99.6% and 99.6 ± 11.2%
- consumption of oxygen (O2) ([1]; 190.0 mg/kg i.p., 300 min, hydrobromide): 151.6% and 151.6 ± 20.7%
- consumption of oxygen (O2) ([1]; 279.0 mg/kg i.p., 0 min): 100 ± 5.2%
- consumption of oxygen (O2) ([1]; 279.0 mg/kg i.p., 10 min): 32.6 ± 2.2%
- consumption of oxygen (O2) ([1]; 279.0 mg/kg i.p., 20 min): 26.7 ± 2.2%
- consumption of oxygen (O2) ([1]; 279.0 mg/kg i.p., 30 min): 20.7%
- consumption of oxygen (O2) ([1]; 279.0 mg/kg i.p., 60 min): 9.3 ± 5.1%
- consumption of oxygen (O2) ([1]; 279.0 mg/kg i.p., 90 min): 10.9 ± 5.5%
- consumption of oxygen (O2) ([1]; 279.0 mg/kg i.p., 120 min): 9.3 ± 5.9%
- consumption of oxygen (O2) ([1]; 279.0 mg/kg i.p., 180 min): 9.3 ± 4.0%
- consumption of oxygen (O2) ([1]; 279.0 mg/kg i.p., 240 min): 13.0 ± 8.7%
- consumption of oxygen (O2) ([1]; 279.0 mg/kg i.p., 300 min): 10.9 ± 1.0%
- consumption of oxygen (O2) ([1]; 365.0 mg/kg i.p., 0 min): 100 ± 4.7%
- consumption of oxygen (O2) ([1]; 365.0 mg/kg i.p., 10 min): 15.2 ± 3.1%
- consumption of oxygen (O2) ([1]; 365.0 mg/kg i.p., 20 min): 15.8 ± 5.0%
- consumption of oxygen (O2) ([1]; 365.0 mg/kg i.p., 30 min): 13.6%
- consumption of oxygen (O2) ([1]; 365.0 mg/kg i.p., 60 min): 13.3 ± 3.7%
- consumption of oxygen (O2) ([1]; 365.0 mg/kg i.p., 90 min): 13.1 ± 2.0%
- consumption of oxygen (O2) ([1]; 365.0 mg/kg i.p., 120 min): 17.0 ± 3.4%
- consumption of oxygen (O2) ([1]; 365.0 mg/kg i.p., 180 min): 11.2 ± 3.4%
- consumption of oxygen (O2) ([1]; 365.0 mg/kg i.p., 240 min): 8.2 ± 2.0%
- consumption of oxygen (O2) ([1]; dose 36.5 mg/kg (1.06 mM/kg) i.p., 300 min): 18.4 ± 2.0%
- behaviour of mice ([2]; 15-180 minutes): akinesia, mio-relaxation, lack of reflexes
- behaviour of mice ([2]; 180-360 minutes): restoration of motor activity
- behaviour of mice ([2]; 5 minutes): decrease in motor activity, suppression of breathing
- tremor or convulsions ([2]; non-toxic dose levels): not accompanied by tremor or convulsions
- 1/2 LD16, calculated ([3]; i.p.): 140 mg/kg
- 1/2 LD16, experimental ([3]; i.p.): 190 mg/kg
- 1/16 LD16 (lower end of dose range 1/16 LD16 -LD50) ([3]; i.p.): 10 mg/kg
- LD50 ([3]; mouse, in vivo, ip, read-out: LD50 (upper end of dose range 1/16 LD16 -LD50)): 365 mg/kg
